According to US20250000873A1, “INHALED ILOPROST FOR RESCUE TREATMENT AND TREATMENT AS NEEDED IN PULMONARY HYPERTENSION” (JUSTUS-LIEBIG-UNIVERSITAET GIESSEN, priority 2021, published 2025):
Entries after “also recorded” stand apart in the source; their conditions may differ.

Legend:
[1] = system: hemodynamic parameters of pulmonary circulation; conditions: conventional nebulizers, administered over 10 minutes; cited from earlier work
[2] = system: patients with pulmonary arterial hypertension; experiment: Clinical pilot study of iloprost PRN, hemodynamics by intracardiac catheter and tolerability; assay type: in vivo, human
Description: A clinical pilot study to evaluate the feasibility of iloprost PRN was conducted with 4 patients. Eligible were male and female patients with pulmonary arterial hypertension in the age from 18 to 70 years having a mean pulmonary arterial blood pressure (PAP) higher than 25 mm Hg, a pulmonary vascular resistance (PVR) higher than 240 dyn*s*cm−5, a central venous pressure (CVP) higher than 3 mm Hg, and a pulmonary capillary wedge pressure (PCWP) lower than 12 mm Hg. Patients were therapy-naïve, or were receiving PH-specific medication (endothelin receptor antagonists, phosphodiesterase type 5 inhibitors, prostacyclin analogues) alone or in combination. Patients were monitored by ECG, pulse oxymetry, and non-invasive blood pressure measurement. An intracardiac catheter was introduced into the distal pulmonary artery to measure PAP, CVP, PCWP, and cardiac output. Also measured were the heart rate, systemic arterial pressure (SAP), systemic vascular resistance (SVR), central arterial and venous blood gases. After the initial determination of all parameters the reactivity of the pulmonary vasculature to oxygen (2 to 4 L/min) and nitric oxide (20 ppm) was tested. Subsequently, patients inhaled a single dose of 2.5 μg of nebulized iloprost in two breaths, using a prototype of a soft mist inhaler filled with iloprost in a concentration of 50 μg/ml. Hemodynamic parameters and clinical condition of the patients were assessed before and 1, 5, 15 and 30 minutes after inhalation. In the absence of adverse effects, a second inhalation maneuver with 4 breaths corresponding to a dose 5 μg iloprost was performed, again followed by an observation period of at least 30 minutes.

SMILES: CC#CCC(C)[C@H](O)/C=C/[C@@H]1[C@H]2C/C(=C/CCCC(=O)O)C[C@H]2C[C@H]1O (stereo partly drawn) [iloprost, 5-{(E)-(1S,5S,6R,7R)-7-hydroxy-6[(E)-(3S,4RS)-3-hydroxy-4-methyl-1-octen-6-inyl]-bicyclo[3.3.0]octan-3-ylidene}pentanoic acid]
- Time of maximum therapeutic effects on hemodynamic parameters of pulmonary circulation after end of inhalation [1]: approximately 5 minutes
- Tolerability of the treatment ([2]; inhaled 2.5 μg (2 breaths) then 5 μg (4 breaths), prototype soft mist inhaler, iloprost 50 μg/ml, 4 patients): all patients tolerated the treatment well
- Systemic side effects (SAP and SVR changes) ([2]; inhaled 2.5 μg or 5 μg, soft mist inhaler prototype, n=4): without significant systemic side effects
- Onset of therapeutic pulmonary vascular effects (PAP and PVR changes) ([2]; rapid inhalation of 2.5 μg or 5 μg (2 or 4 puffs à 1.25 μg), soft mist inhaler prototype, n=4): already seen within only one minute after rapid iloprost inhalation; also recorded: already registered one minute after finishing the inhalation maneuver
